{
  "source": "patent US8541200B2",
  "about": "“Cleavage of fusion proteins using Granzyme B protease” (Hoffmann-La Roche Inc., priority 2003, dated 2013)",
  "assay_type_in_all_cases": "biochemical",
  "key": {"[1]": {"test": "Colorimetric Granzyme B activity assay with Ac-IEPD-pNA (absorbance at 405 nm)", "description": "GrB-H6 activity was measured using the following mix: 500 μl buffer, 2 μl 100 mM Ac-IEPD-pNA, and 5 μl GrB-H6.\nRecombinant self-activating human Granzyme B derivatives IEPD-GrB-H6 and IEAD-GrB-H6 were produced as described in Example 2 by using the expression vectors pT7-IEPD-GrB-H6 and pT7-IEAD-GrB-H6 described in Example 1. The IEAD-GrB-H6 and IEPD-GrB-H6 proteins were eluted from the SP Sepharose columns and stored at 4° C. for 2 days before the activity of the respective top fractions were determined by using a colorimetric assay. For this purpose the following was mixed: 500 μl buffer (100 mM HEPES pH 7.5), 2 μl 100 mM Ac-IEPD-pNA, and 5 μl protein solution. The change in absorption was then determined at 405 nm during 3 min. The activity was further determined after additional incubation for 1 and 2 days at 4° C.\nThe activity of the activated and purified GrB-H6 was measured in different buffers using the Ac-IEPD-pNA substrate: 500 μl buffer, 2 μl 100 mM Ac-IEPD-pNA, and 5 μl GrB-H6. The ΔOD405/min was calculated from the first 0.75 min unless otherwise noted."}, "[2]": {"test": "Steady state kinetic parameters KM and kcat, Lineweaver-Burk plot", "settings": "100 mM HEPES pH 7.75; 20 nM protease", "description": "To estimate the steady state kinetic parameters KM and kcat, the same colorimetric assay as described above was used with a total volume of 500 μl in the assay cuvette. The assay buffer was 100 mM HEPES pH 7.75, and both GrB-H6 and GrB-H6 C228F were used in a concentration of 20 nM in each measurement. To construct a Lineweaver-Burk plot the following substrate concentrations were used: 5, 40, 150, 300, and 600 μM."}, "[3]": {"test": "Specificity on chromogenic substrates", "settings": "400 μM substrate, 1 μg protease, 100 mM HEPES pH 7.75; normalized to Ac-IEPD-pNA = 100%", "description": "The activity assay was carried out in 500 μl 100 mM HEPES pH 7.75 with a substrate concentration of 400 μM and 1 μg protease added for each measurement. All measurements were done at 23° C. and in triplicate, and the activities obtained were normalized by setting the activity measured on Ac-IEPD-pNA to 100%.\nThe specificity of both the GrB-H6 and the GrB-H6 C228F protease was examined using the chromogenic substrates Ac-LEED-pNA, Ac-VEID-pNA, Ac-YVAD-pNA, and Ac-DEVD-pNA, in addition to the Ac-IEPD-pNA substrate applied in Example 4. The activity assay was again carried out in 500 μl 100 mM HEPES pH 7.75 with a substrate concentration of 400 μM. For each measurement 1 μg of protease was added to the assay cuvette. All measurements were done in triplicate, and the activities obtained were normalized by setting the activity measured on Ac-IEPD-pNA to 100%."}},
  "note": "Where “and” joins values, the source holds several entries; their conditions need not be identical. Equal entries are not always repeated.",
  "data": [
    {"substance": "GrB-H6: activated human Granzyme B with C-terminal hexa-His tag, from cleavage/activation of pro-IEGR-GrB-H6 by FXa", "values": [
      {"measurement": "Activity (ΔOD405/min)", "setting": "[1]; 50 mM NaCl, 25 mM Tris-HCl pH 7.4, 0.5 μg GrB-H6", "result": "0.1948 ΔOD405/min"},
      {"measurement": "Activity (ΔOD405/min)", "setting": "[1]; 100 mM HEPES pH 7.2, 0.5 μg GrB-H6", "result": "0.1970 ΔOD405/min"},
      {"measurement": "Activity (ΔOD405/min)", "setting": "[1]; 100 mM HEPES pH 7.4 + 50 mM KCl, 0.5 μg GrB-H6", "result": "0.2167 ΔOD405/min"},
      {"measurement": "Activity (ΔOD405/min)", "setting": "[1]; 100 mM HEPES pH 7.4 + 50 mM NaCl, 0.5 μg GrB-H6", "result": "0.1993 ΔOD405/min and 0.1938 ΔOD405/min"},
      {"measurement": "Activity (ΔOD405/min)", "setting": "[1]; 100 mM HEPES pH 7.4, 0.5 μg GrB-H6", "result": "0.2273 ΔOD405/min and 0.2328 ΔOD405/min"},
      {"measurement": "Activity (ΔOD405/min)", "setting": "[1]; 100 mM HEPES pH 7.5 + 5 mM Ca^2+, 0.5 μg GrB-H6", "result": "0.2425 ΔOD405/min"},
      {"measurement": "Activity (ΔOD405/min)", "setting": "[1]; 100 mM HEPES pH 7.5, 0.5 μg GrB-H6", "result": "0.2350 ΔOD405/min"},
      {"measurement": "Activity (ΔOD405/min)", "setting": "[1]; 100 mM KCl, 50 mM Tris-HCl pH 7.4, 0.5 μg GrB-H6", "result": "0.1662 ΔOD405/min"},
      {"measurement": "Activity (ΔOD405/min)", "setting": "[1]; 100 mM NaCl, 50 mM Tris-HCl pH 7.4, 0.5 μg GrB-H6", "result": "0.1682 ΔOD405/min"},
      {"measurement": "GrB activity, before FXa removal", "setting": "[1]; 100 mM NaCl, 50 mM Tris-HCl pH 8.0", "result": "0.1401 ΔOD405/min"},
      {"measurement": "GrB activity, after FXa removal", "setting": "[1]; 100 mM NaCl, 50 mM Tris-HCl pH 8.0, top fraction of SP Sepharose eluate", "result": "0.2213 ΔOD405/min"},
      {"measurement": "Activity (ΔOD405/min)", "setting": "[1]; TN pH 7.0, 1 μg GrB-H6", "result": "0.2794 ΔOD405/min"},
      {"measurement": "Activity (ΔOD405/min)", "setting": "[1]; TN pH 7.4 + 5 mM Ca^2+, 0.5 μg GrB-H6", "result": "0.1401 ΔOD405/min"},
      {"measurement": "Activity (ΔOD405/min)", "setting": "[1]; TN pH 7.4 + 5 mM Mg^2+, 0.5 μg GrB-H6", "result": "0.1491 ΔOD405/min"},
      {"measurement": "Activity (ΔOD405/min)", "setting": "[1]; TN pH 7.4 + 0.1% TWEEN20, 0.2 μg GrB-H6, (3 min)", "result": "0.0303 (3 min) ΔOD405/min"},
      {"measurement": "Activity (ΔOD405/min)", "setting": "[1]; TN pH 7.4 + 0.1% TWEEN20, 0.5 μg GrB-H6", "result": "0.0887 ΔOD405/min"},
      {"measurement": "Activity (ΔOD405/min)", "setting": "[1]; TN pH 7.4, 0.2 μg GrB-H6, (3 min)", "result": "0.0245 (3 min) ΔOD405/min"},
      {"measurement": "Activity (ΔOD405/min)", "setting": "[1]; TN pH 7.4, 0.5 μg GrB-H6", "result": "0.0835 ΔOD405/min and 0.1082 ΔOD405/min"},
      {"measurement": "Activity (ΔOD405/min)", "setting": "[1]; TN pH 7.4, 1 μg GrB-H6", "result": "0.2624 ΔOD405/min and 0.2930 ΔOD405/min"},
      {"measurement": "Activity (ΔOD405/min)", "setting": "[1]; TN pH 8.1, 1 μg GrB-H6, (1 min)", "result": "0.2213 (1 min) ΔOD405/min"},
      {"measurement": "best buffer for activity of the buffers evaluated", "setting": "[1]; buffers of Table 6", "result": 100, "unit": "mM HEPES pH 7.4-7.5"},
      {"measurement": "Km", "setting": "[2]", "result": 66.9, "unit": "µM"},
      {"measurement": "kcat", "setting": "[2]", "result": 5.03, "unit": "s⁻¹"},
      {"measurement": "specificity on chromogenic substrates", "setting": "[3]", "result": "at least as specific as the GrB-H6 C228F protease"}
    ]}
  ]
}
